“And” between values parts separate entries of the source, which are not always exact repeats. Identical values can stand only once.
Biological target: T1, plasma kallikrein (PKa) (Homo sapiens, UniProt P03952)
T1 construct: purchased R & D 2497-SE
Test: Inhibitory activity against plasma kallikrein in vitro (fluorescence intensity enzyme assay, Pro-Phe-Arg-AMC substrate)
Type: biochemical
Conditions: plasma kallikrein enzyme assay, Pro-Phe-Arg-AMC substrate; read-out: PKa IC50
Description: Test of the inhibitory activities of the compounds of the present invention against plasma kallikrein (PKa), KLK1 and FXIa in vitro.
The final concentrations of enzyme protein and Pro-Phe-Arg-AMC in the reaction mixture were 10 nM and 60 µM, respectively. The starting concentration of the positive reference substance Avoralstat was 100 nM, 3-fold dilution, 10 + 0 dose. 0.05 µL of compound in 100% DMSO was delivered to a 384-well plate by an acoustic liquid delivery technique (Echo665; nanoliter range). Compound duplex test. […] IC50 values and nonlinear regression curve fitting were obtained using GraphPad Prism software.

T1 sequence (P03952 391-638 limits assumed): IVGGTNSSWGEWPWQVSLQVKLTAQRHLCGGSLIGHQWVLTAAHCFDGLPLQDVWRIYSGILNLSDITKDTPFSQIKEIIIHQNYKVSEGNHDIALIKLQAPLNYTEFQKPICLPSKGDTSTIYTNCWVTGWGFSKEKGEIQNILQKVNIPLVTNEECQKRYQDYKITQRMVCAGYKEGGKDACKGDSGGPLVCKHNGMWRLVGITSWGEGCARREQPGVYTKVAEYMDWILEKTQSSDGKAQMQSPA
T1 sequence (P03952 20-390 partner limits assumed): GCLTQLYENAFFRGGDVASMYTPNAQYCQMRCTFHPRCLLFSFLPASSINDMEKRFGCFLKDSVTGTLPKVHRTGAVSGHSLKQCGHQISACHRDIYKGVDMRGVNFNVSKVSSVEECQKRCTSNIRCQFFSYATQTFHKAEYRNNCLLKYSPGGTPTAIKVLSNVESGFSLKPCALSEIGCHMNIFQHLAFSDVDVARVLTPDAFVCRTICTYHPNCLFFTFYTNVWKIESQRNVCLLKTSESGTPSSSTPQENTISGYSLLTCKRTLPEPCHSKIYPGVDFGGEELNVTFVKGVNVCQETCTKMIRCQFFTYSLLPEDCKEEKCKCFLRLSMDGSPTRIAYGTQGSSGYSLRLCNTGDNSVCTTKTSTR

Compound | IC50
COc1ccnc(CNC(=O)c2cn(Cc3ccc(Cn4ccccc4=O)cc3)nc2COCCN(C)C)c1F [Compound 191] | 16.3 nM
COc1ccc(F)c(CNC(=O)c2cn(Cc3ccc(Cn4cc(F)ccc4=O)cc3)nc2OCCF)c1F [Compound 226] | 10.9 nM
CCn1c(CNC(=O)c2cn(Cc3ccc(Cn4ccccc4=O)cc3)nc2COC)cc2cnccc21 [Compound 176] | 18 nM
COCc1nn(Cc2ccc(Cn3ccccc3=O)cc2)cc1C(=O)NCc1cc2cnccc2n1C [Compound 139] | 12.6 nM
COc1ccnc(CNC(=O)c2cn(Cc3ccc(Cn4ccccc4=O)cc3)nc2COCC2(F)COC2)c1F [Compound 235, N-((3-fluoro-4-methoxypyridin-2-yl)methyl)-3-((3-fluorooxetan-3-yl)methoxy)methyl] | 3.33 nM
COCCn1c(CNC(=O)c2cn(Cc3ccc(Cn4ccccc4=O)cc3)nc2COC)cc2cnccc21 [Compound 192] | > 1000 nM
Cc1cnn(C)c1-c1nn(Cc2ccc(Cn3ccccc3=O)cc2)cc1C(=O)NCc1nccc(N(C)C)c1F [Compound 166] | 4.59 nM
O=C(NCc1cc2ccncc2[nH]1)c1cn(Cc2ccc(Oc3ccccc3)cc2)nc1C(F)(F)F [Compound 186] | 709 nM
COc1ccnc(CNC(=O)c2cn(Cc3ccc(Cn4ccccc4=O)cc3)nc2CN2CC3(COC3)C2)c1F [Compound 238] | 9.15 nM
COc1ccc(F)c(COC(=O)c2cn(Cc3ccc(Cn4cc(F)ccc4=O)cc3)nc2NC2(C)COC2)c1F [Compound 237] | 2.78 nM
COCc1nn(Cc2ccc(Cn3ccccc3=O)cc2)cc1C(=O)NCc1cc2cnccc2n1C [Compound 161] | 12.7 nM
COc1ccnc(CNC(=O)c2cn(Cc3ccc(Cn4ccccc4=O)cc3)nc2C2CC(C)(OC)C2)c1F (stereo not drawn) [Compound 210] | 5.99 nM
C#Cc1nn(Cc2ccc(Cn3ccccc3=O)cc2)cc1C(=O)NCc1nccc(OC)c1F [Compound 85] | 58.7 nM
COc1ccc(F)c(CNC(=O)c2cn(Cc3ccc(Cn4cc(F)ccc4=O)cc3)nc2[C@@H](C)C2COC2)c1F [Compound 180] | 7.88 nM
N-((3-fluoro-4-methoxypyridin-2-yl)methyl)-3-(methoxymethyl)-1-(4-((2-oxo-2,3-dihydro-1H-pyrrolo[3,2-b]pyridin-1-yl)methyl]benzyl)-1H-pyrazole-4-carboxamide [Compound 113] | > 100 nM
COc1ccnc(CNC(=O)c2cn(Cc3ccc(Cn4ccccc4=O)cc3)nc2COC2CCCOC2)c1F (stereo not drawn) [Compound 294] | 10.6 nM
COc1ccnc(CNC(=O)c2cn(Cc3ccc(Cn4ccccc4=O)cc3)nc2C2CC(OC)C2)c1F (stereo not drawn) [Compound 208] | 7.99 nM
CC(C)CNc1ccnc(CNC(=O)c2cn(Cc3ccc(Cn4ccccc4=O)cc3)nc2N2CC(F)(F)C2)c1F [Compound 279] | > 1000 nM
COc1ccc(F)c(CNC(=O)c2cn(Cc3ccc(Cn4ccccc4=O)cc3)nc2C2CC(C)(OC)C2)c1F (stereo not drawn) [Compound 211] | 8.34 nM
Nc1cc2c(cn1)[C@@H](NC(=O)c1ncn(Cc3cn4cc(C5CC5)ccc4n3)n1)CC2 [Compound 46] | > 100 nM
COc1ccc(F)c(CNC(=O)c2cn(Cc3ccc(Cn4cc(F)ccc4=O)cc3)nc2N2CC(F)(F)C2)c1F [Compound 281] | 24.9 nM
O=C(NCc1cc2cnccc2[nH]1)c1cn(Cc2ccc(Cn3ccccc3=O)cc2)nc1C(F)(F)F [Compound 123] | 29.5 nM

Compound | IC50
COCc1nn(Cc2ccc(N3CC4C(C3)C4(F)F)cc2C#N)cc1C(=O)NCc1cn2c(n1)CNCC2 (stereo not drawn) [Compound 104] | > 100 nM
COc1ccnc(CNC(=O)c2cn(Cc3ccc(Cn4ccccc4=O)cc3)nc2-c2cnccn2)c1F [Compound 301] | 24.9 nM
COc1ccnc(CNC(=O)c2cn(Cc3ccc(Cn4ccccc4=O)cc3)nc2CN2C[C@H](C)O[C@@H](C)C2)c1F [Compound 309] | 273 nM
COc1ccnc(CNC(=O)c2cn(Cc3ccc(Cn4ccccc4=O)cc3)nc2-c2cncnc2)c1F [Compound 304] | 7.24 nM
COCc1nn(Cc2ccc(Oc3ccccc3)cc2)cc1C(=O)NCc1nccc(OC)c1F [Compound 117] | > 1000 nM
COc1ccnc(CNC(=O)c2cn(Cc3ccc(Cn4ccccc4=O)cc3)nc2CN2C(=O)CCCC2=O)c1F [Compound 308] | 3.49 nM
COc1ccc(F)c(CNC(=O)c2cn(Cc3ccc(Cn4ccccc4=O)cc3)nc2N2CC(F)(F)C2)c1F [Compound 233] | 9.73 nM
COc1ccc(Cl)c(CNC(=O)c2cn(Cc3ccc(Cn4ccccc4=O)cc3)nc2N2CC(F)(F)C2)c1F [Compound 290] | 4.62 nM
CN(C)c1ccnc(CNC(=O)c2cn(Cc3ccc(Cn4ccccc4=O)cc3)nc2C2CC(F)(F)C2)c1F [Compound 342] | 6.29 nM
CCc1cc(N2CC3C(C2)C3(F)F)ccc1Cn1cc(C(=O)NCc2cc3ccncc3[nH]2)c(C(F)(F)F)n1 (stereo not drawn) [Compound 199] | 19.8 nM
COCc1nn(Cc2ccc(Cn3ccccc3=O)cc2)cc1C(=O)NCc1c(Cl)c2ccncc2n1C [Compound 154] | 68.8 nM
COCc1nn(Cc2ccc(Cn3ccccc3=O)cc2)cc1C(=O)NCc1ccc2nccn2c1 [Compound 126] | 229 nM
COc1ccnc(CNC(=O)c2cn(Cc3ccc(Cn4ccccc4=O)cc3)nc2N2CCOCC2)c1F [Compound 224] | 28.2 nM
COCCOCc1nn(Cc2ccc(Cn3ccccc3=O)cc2)cc1C(=O)NCc1nccc(OC)c1F [Compound 162] | 8.68 nM
COCC1(F)CN(c2nn(Cc3ccc(Cn4ccccc4=O)cc3)cc2C(=O)NCc2nccc(OC)c2F)C1 [Compound 223] | 11.9 nM
COCc1nn(Cc2ccc(Cn3ccccc3=O)cc2)cc1C(=O)NCc1cn2ccc(Cl)c(F)c2n1 [Compound 120] | > 1000 nM
O=C(NCc1nccc(NCC2CC2)c1F)c1cn(Cc2ccc(Cn3ccccc3=O)cc2)nc1N1CC(F)(F)C1 [Compound 277] | > 1000 nM
COCc1nn(Cc2ccc(Cn3c(=O)sc4cccc(F)c43)cc2)cc1C(=O)NCc1nccc(OC)c1F [Compound 160] | 413 nM
COc1ccc(F)c(CNC(=O)c2cn(Cc3ccc(Cn4cc(F)ccc4=O)cc3)nc2C2CC(F)(F)C2)c1F [Compound 209, N-(2,6-difluoro-3-methoxybenzyl)-3-(3,3-difluorocyclobutyl)-1-(4-((5-fluoro-2-oxopyridin-1(2H)yl)methyl)benzyl)-1H-pyrazole-4-carboxamide] | 10.6 nM and > 100 nM
O=C(NCc1nccc(C2CC2)c1F)c1cn(Cc2ccc(Cn3ccccc3=O)cc2)nc1C1CC(F)(F)C1 [Compound 340] | 48 nM
COCc1nn(Cc2ccc(N3CC4C(C3)C4(F)F)cc2C#N)cc1C(=O)NCc1cc2cnccc2[nH]1 (stereo not drawn) [Compound 86] | 21.2 nM
COc1ccc(F)c(CNC(=O)c2cn(Cc3ccc(Cn4cc(F)ccc4=O)cc3)nc2COCCN2CCCC2)c1F [Compound 231] | 3.66 nM

Continued, values first:

IC50 | Compound
65.6 nM | Cc1cc(C(=N)N)nc(C)c1CNC(=O)c1cnn(Cc2ccc(CC3CC3)cc2)c1 [Compound 323]
> 100 nM | COCc1nn(Cc2ccc(Cn3ccccc3=O)cc2)cc1C(=O)NCc1c(C)cncc1C [Compound 114]
> 100 nM | COCc1nn(Cc2ccc(CN3CCCCCC3)cc2)cc1C(=O)NCc1nccc(OC)c1F [Compound 102]
14.3 nM | N=C(N)c1ccc(CNC(=O)c2cnn(Cc3ccc(CC4CC4)cc3)c2)nc1 [Compound 243]
523 nM | Nc1ncc(CNC(=O)c2cnn(Cc3ccc(Cn4ccccc4=O)cc3)c2)s1 [Compound 36]
165 nM | O=C(NCc1ccc2cnccc2c1)c1cnn(Cc2ccc(Cn3ccccc3=O)cc2)c1 [Compound 207]
3.72 nM | Cc1cc(N)nc(C)c1CNC(=O)c1ncn(Cc2ccc(CN3CCCCC3=O)cc2)n1 [Compound 78]
3.15 nM | N=C(N)c1ccc(CNC(=O)c2cnn(Cc3c(Cl)cc(OCC4CC4)cc3Cl)c2)cc1 [Compound 359]
> 100 nM | COCc1nn(Cc2ccc(CC3CC3)cc2)cc1C(=O)NCc1nccc(OC)c1F [Compound 91, 1-(4-(cyclopropylmethyl)benzyl)-N-((3-fluoro-4-methoxypyridin-2-yl)methyl)-3-(methoxymethyl)-1H-pyrazole-4-carboxamide]
699 nM | Cc1nc(N)nc(C)c1CNC(=O)c1ncn(Cc2ccc(Cn3cc(F)ccc3=O)cc2)n1 [Compound 26]
7.78 nM | CNc1ccnc(CNC(=O)c2cn(Cc3ccc(Cn4ccccc4=O)cc3)nc2C2COC2)c1F [Compound 260, N-((3-fluoro-4-(methylamino)pyridin-2-yl)methyl)-3-(oxetan-3-yl)-1-(4-((2-oxopyridin-1(2H)-yl)methyl)benzyl)-1H-pyrazole-4-carboxamide]
421 nM | CN(C)c1ccnc(CNC(=O)c2cn(Cc3ccc(CC4CC4)cc3)nc2C2COC2)c1F [Compound 334]
237 nM | CNc1ccnc(CNC(=O)c2cn(Cc3ccc(CC4CC4)cc3)nc2C2COC2)c1F [Compound 344]
787 nM | O=C(NCc1ncc2ccn(CCO)c2c1F)c1cnn(Cc2ccc(Cn3ccccc3=O)cc2)c1 [Compound 369, N-((7-fluoro-1-(2-hydroxyethyl)-1H-pyrrolo[3,2-c]pyridin-6-yl)methyl)-1-(4-((2-oxopyridin-1(2H)-yl)methyl]benzyl)-1H-pyrazole-4-carboxamide]
2.64 nM | COc1ccnc(CNC(=O)c2cn(Cc3ccc(Cn4ccccc4=O)cc3)nc2C2CC2(F)F)c1F (stereo not drawn) [Compound 216]
2.64 nM | Cc1cc(N)nc(C)c1CNC(=O)c1cnn(Cc2ccc(CC3CC3)cc2)c1 [Compound 280]
> 1000 nM | O=C(NCc1nccc(C2CC2)c1F)c1cn(Cc2ccc(CC3CC3)cc2)nc1C1COC1 [Compound 343]
164 nM | O=C(NCc1ccc2ccncc2c1)c1cnn(Cc2ccc(Cn3ccccc3=O)cc2)c1 [Compound 197]
131 nM | COCc1nn(Cc2ccc(Cn3ccccc3=O)cc2)cc1C(=O)NCc1cc2ccncc2n1C [Compound 135]

Source: patent EP4737450A1 (Longwood Pharmaceuticals (Hangzhou) Co., Ltd, priority 2023, dated 2025)
